By inhibition is commonly meant the change of the read-out against control, counted positive when it falls.

Data set [1] in a line: Plasma protein binding, HT-Dialysis (rat). To be noted: pH 7.4, dialysis 4 hours, read-out: percent unbound. Format: in vitro ADME. The procedure: HT-Dialysis plate (Model HTD 96 b, Cat #1006) and the dialysis membrane (molecular weight cut off 12-14 KDa, Cat #1101) can be purchased from HT Dialysis LLC (Gales Ferry, CT).
The plasma was thawed under running cold tap water and centrifuged at 3220×g for 5 min to remove any clots. The pH value was checked and recorded. Only plasma within range of pH 7.0 to pH 8.0 was used. The dialysis membrane was pretreated according to the manufacturer's instructions. Briefly, the dialysis membrane strips were soaked in ultra-pure water at room temperature for approximately 1 hr. After that, each membrane strip that contained 2 membranes was separated and soaked in ethanol:water (20:80 v:v) for approximately 20 min. The membrane was rinsed and soaked for 20 min in ultra-pure water.
Aliquots of 50 μL loading plasma (matrix) containing compound 1 or warfarin in triplicate were transferred to the appropriate wells of a sample collection plate. The samples were matched with dialysis buffer to obtain a final volume of 100 μL with a volume ratio of plasma (matrix):dialysis buffer (1:1, v:v) in each well. […]
The % Unbound, % Bound, % Recovery and % Remaining were calculated using the following equations: % Unbound=100×F/T % Bound=100−% Unbound % Recovery=100×(F+T)/T0 • F=the compound 1 concentration on the receiver side of the membrane/Correction Factor. […]

Another data set concerns the target T1, CYP1A2 (Homo sapiens, UniProt P05177).
T1 construct: from tissue
T1 sequence (P05177 1-516): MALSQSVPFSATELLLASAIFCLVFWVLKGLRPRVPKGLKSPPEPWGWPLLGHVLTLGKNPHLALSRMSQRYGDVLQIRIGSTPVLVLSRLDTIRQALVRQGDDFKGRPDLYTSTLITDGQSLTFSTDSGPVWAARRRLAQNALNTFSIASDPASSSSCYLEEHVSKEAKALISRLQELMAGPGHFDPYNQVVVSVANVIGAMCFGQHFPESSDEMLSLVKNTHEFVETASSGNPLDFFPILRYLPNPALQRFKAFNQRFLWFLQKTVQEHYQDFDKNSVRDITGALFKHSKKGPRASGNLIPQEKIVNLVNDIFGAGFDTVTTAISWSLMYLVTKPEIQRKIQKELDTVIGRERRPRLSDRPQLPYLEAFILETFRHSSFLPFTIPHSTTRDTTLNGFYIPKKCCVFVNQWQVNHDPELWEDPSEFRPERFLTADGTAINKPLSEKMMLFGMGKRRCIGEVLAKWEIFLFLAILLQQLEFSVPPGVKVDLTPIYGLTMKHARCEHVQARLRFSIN
The experiment in a line: 5 in 1 CYP inhibition assay, CYP1A2. It is filed as in vitro ADME. To be noted: microsomes, probe phenacetin (O-deethylation), test compound 10 μM, n=2, read-out: inhibition of cytochrome P450 isoform 1A2. The protocol: (§1) CYP450 dependent activities were determined using a marker substrate cocktail. For each reaction, enzyme activities in the presence and absence of test compound (10 μM) were measured in duplicate. A known inhibitor for each isoform, tested at a single concentration (3 μM, n=2), was included as positive control. Incubation mixtures containing microsomes, substrate, and standard inhibitor or test compound were warmed at 37° C. for 10 minutes. Reactions were initiated by addition of the NADPH and incubated for 10 min. [table] After incubation, ice cold acetonitrile was added to terminate the reaction. Generation of metabolites from the substrate reactions was determined by LC-MS/MS.

A further data set has as its target T2, CYP2C19 (Homo sapiens, UniProt P33261).
T2 construct: from tissue
The experiment in a line: 5 in 1 CYP inhibition assay, CYP2C19. It is filed as in vitro ADME. To be noted: microsomes, probe S-mephenytoin (4′-hydroxylation), test compound 10 μM, n=2, read-out: inhibition of cytochrome P450 isoform 2C19. The protocol:
as §1

For data set [2], the system named is THP1 human macrophage cells. The experiment in a line: Stimulation of THP-1 cells, IL-6 at 6 or 36 hours post stimulation. It is filed as cell-based. The following applies: THP1-derived macrophages, IFNγ + LPS, 0.1 to 500 μM, FIG. 9. The protocol:
Human immortalized monocytic THP-1 cells were maintained in phenol red free RPMI 1640 medium containing 10% (v/v) fetal bovine serum (FBS), 2 mM L-glutamine, penicillin (100 units/mL), streptomycin (100 μg/mL), amphotericin B (2.5 μg/mL), and 50 μM beta-mercaptoethanol (BME) at 37° C. with 5% (v/v) CO2. THP-1 cells were seeded in 1 mL of THP-1 medium (cell culture medium containing 10% (v/v) FBS, 2 mM L-glutamine, penicillin (100 units/mL), streptomycin (100 μg/mL), amphotericin B ([…]), and 50 μM BME)/well at a density of 1×10^6 cells/mL in six-well plates. Cells were differentiated by adding 10, 50, or 100 nM phorbol 12-myristate 13-acetate (PMA) to each well before incubating cells for 5.5 h at 37° C. with 5% (v/v) CO2. Without removing the media, different concentrations (either 0, 0.1, 1.0, 10, 100, 200, or 500 μM) of the compound were added to each well. Cells were stimulated, within 30 min by adding 20 ng/mL interferon gamma (IFNγ) and 100 ng/mL lipopolysaccharide (LPS) to each well. Following stimulation, the THP-1 cells were incubated for 6 or 36 hours at 37° C. with 5% (v/v) CO2. Supernatant was collected and stored at −80° C. until use.
IL-6 released from supernatants collected at 6 or 36 hours post stimulation with IFNγ and LPS were measured using the AlphaLISA Human IL-6 detection kit.

T2 sequence (P33261 whole entry): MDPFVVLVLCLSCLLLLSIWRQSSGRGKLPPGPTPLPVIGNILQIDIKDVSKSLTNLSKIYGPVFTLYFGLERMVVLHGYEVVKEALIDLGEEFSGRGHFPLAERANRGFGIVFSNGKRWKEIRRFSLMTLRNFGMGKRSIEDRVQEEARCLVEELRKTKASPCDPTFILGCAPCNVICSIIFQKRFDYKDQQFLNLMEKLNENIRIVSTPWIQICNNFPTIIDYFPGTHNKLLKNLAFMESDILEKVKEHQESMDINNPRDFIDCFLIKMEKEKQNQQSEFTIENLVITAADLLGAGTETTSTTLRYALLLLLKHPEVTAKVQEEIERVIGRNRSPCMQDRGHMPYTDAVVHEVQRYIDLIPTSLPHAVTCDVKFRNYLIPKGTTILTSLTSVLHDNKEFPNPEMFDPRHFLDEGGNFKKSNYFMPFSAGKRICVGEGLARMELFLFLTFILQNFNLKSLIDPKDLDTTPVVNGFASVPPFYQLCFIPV

For the compound `C[C@H](CC/C=C/C(=O)O)O[C@@H]1O[C@@H](C)[C@H](O)C[C@H]1O` [ascr #7, reference compound], the fraction unbound at 4 h in data set [1] was 0.946. Also, the inhibition at 10 min, 10 µM was 2.3% at CYP1A2 and 4% at CYP2C19.
On to `C[C@H](CC/C=C/C(=O)OC(C)(C)C)O[C@@H]1O[C@@H](C)[C@H](O)C[C@H]1O` [Compound 1, tert-butyl (2E,6R)-6-{[(2R,3R,5R,6S)-3,5-dihydroxy-6-methyloxan-2-yl]oxy}hept-2-enoate], for which the inhibition at 10 min, 10 µM turned out to be 10.9% on CYP1A2 and 16.2% on CYP2C19. The “percent inhibition relative to Control of IL-6 levels secreted” value in data set [2] is given as “inhibited IL-6 expression in statistically significant, dose-dependent manner”.

The record behind these values is US11845770B2, “Ascaroside derivatives and methods of use” (California Institute of Technology, priority 2019, dated 2023).
